IC50 data for three molecules are collected here from ChEMBL document CHEMBL4130389, “An integrative study to identify novel scaffolds for sphingosine kinase 1 inhibitors” (Eur J Med Chem, 2017).

SMILES strings stand for the structures.

The target of the assay is Sphingosine kinase 1 (Homo sapiens, UniProt Q9NYA1). The assay is described as follows: Inhibition of human N-terminal MGHHHHHHHHHHSSG-tagged SphK1 (2 to 384 residues) expressed in Escherichia coli Rosetta-2 by fluorescence assay.
Sphingosine kinase 1, sequence (Q9NYA1 whole entry, the tested form may be a part): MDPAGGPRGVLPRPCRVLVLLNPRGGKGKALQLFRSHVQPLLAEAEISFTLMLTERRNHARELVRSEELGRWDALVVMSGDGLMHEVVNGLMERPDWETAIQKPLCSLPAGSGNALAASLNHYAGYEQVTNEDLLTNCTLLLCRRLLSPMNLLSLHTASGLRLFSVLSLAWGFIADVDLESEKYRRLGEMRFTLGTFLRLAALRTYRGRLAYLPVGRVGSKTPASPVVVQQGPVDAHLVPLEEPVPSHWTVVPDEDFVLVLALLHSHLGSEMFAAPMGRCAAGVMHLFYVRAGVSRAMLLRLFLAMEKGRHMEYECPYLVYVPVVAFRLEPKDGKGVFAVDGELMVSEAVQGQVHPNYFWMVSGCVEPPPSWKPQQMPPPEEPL
As usually defined, the IC50 is the concentration that gives 50% inhibition. The low end stands for greater potency, the high end for weaker potency. `CCCCOC(=O)Nc1ccc(C(O)CN2CCN(c3ccncc3)CC2)cc1` (stereo not drawn): half-maximal inhibition (IC50) required 55 µM. On to `CC1Cc2c(N/N=C/c3ccc(Cl)cc3)ncnc2N(C)c2ccccc21` (stereo not drawn), for which the IC50 amounted to 12 µM. This IC50 lies about 4.6-fold lower than the previous one.

`CCCCOC(=O)Nc1cccc(C(O)CN2CCN(c3ccncc3)CC2)c1` (stereo not drawn) had an IC50 of 60 µM.
